Measured values as given in patent US12338243B2, “P2X7 modulators” (JANSSEN PHARMACEUTICA NV, priority 2014, dated 2025).
Several values for one entry are separate records, joined by “and”; a condition that tells them apart may be missing. Identical values can stand only once.

Columns and labels:
[1] = Biodistribution studies of radiotracer in healthy female Wistar rats; format: in vivo; conditions: for % ID blood: blood mass assumed 7% of body mass; for SUV blood / % ID carcass / % ID cerebellum / SUV cerebellum / % ID cerebrum / SUV cortex / % ID heart / SUV hippocampus / % ID intestines / % ID kidneys / % ID liver / % ID lungs / SUV rest of cerebrum / % ID spleen + pancreas / % ID stomach / SUV striatum / % ID urine / SUV whole cerebrum: mean ± SD, n = 3
Procedure: (§1) HPLC analysis was performed on a LaChrom Elite HPLC system (Hitachi, Armstadt, Germany) connected to a UV spectrometer set at 220 nm. For the analysis of radiolabeled compounds, the HPLC eluate, after passage through the UV detector, was led over a shielded 3-inch NaI(Tl) scintillation detector connected to a multichannel analyser (Gabi box, Raytest, Straubenhardt, Germany). The output signal was recorded and analysed using a GINA Star data acquisition system (Raytest, Straubenhardt, Germany). Radioactivity in samples of biodistribution studies, cell uptake experiments and radiometabolite analysis was quantified using an automated gamma counter equipped with a 3-inch NaI(Tl) well crystal coupled to a multichannel analyser (Wallac 2480 Wizard, Wallac, Turku, Finland). Results were corrected for background radiation, physical decay and counter dead time.
Animals were housed in individually ventilated cages in a thermoregulated (˜22° C.), humidity-controlled facility under a 12 h/12 h light/dark cycle with access to food and water ad libitum. All animal experiments were conducted according to the Belgian code of practice for the care and use of animals, after approval from the KU Leuven University Ethics Committee for Animals.
The biodistribution studies were performed in healthy female Wistar rats (body weight, 185-220 g) at 2, 30 and 60 min after tracer injection (n=3/time point). […] The animals were sacrificed by decapitation at the indicated time points. Blood and major organs were collected in tared tubes and weighed. The radioactivity in the dissected organs and blood was counted using an automated gamma counter. For calculation of total blood radioactivity, blood mass was assumed to be 7% of the body mass.

[2] = Rat plasma radiometabolite analysis; format: in vivo; conditions: 30 min after radiotracer injection, n=2
Procedure: as §1
Radiometabolites of [^11C]55 in plasma of normal female Wistar rats (n=2) were quantified at 30 min after tracer injection. […] The fraction of more lipophilic radiometabolites eluting after the intact tracer was negligible (<1.5%).

For `C[C@H]1Cn2c(nnc2-c2cc(O[11CH3])ccn2)CN1C(=O)c1cccc(Cl)c1Cl` [[^11C]55, (S)-(2,3-dichlorophenyl)(3-(4-[^11C]methoxypyridin-2-yl)-6-methyl-5,6-dihydro-[1,2,4]triazolo[4,3-a]pyrazin-7(8H)-yl)methanone], which “% ID blood” value ([1]; 2 min after tracer injection) is on record?
Its value is 10.0 % ID and 10.0 ± 2.4 % ID.

And the SUV blood ([1]; 2 min after tracer injection)?
The SUV blood was 1.42 ± 0.3.

What about the “% ID blood” value ([1]; 30 min after tracer injection) of the same compound?
The value was 5.2 ± 0.6 % ID.

And the SUV blood ([1]; 30 min after tracer injection)?
The SUV blood was 0.74 ± 0.1.

What about the “% ID blood” value ([1]; 60 min after tracer injection) of the same compound?
The value was 5.3 % ID and 5.3 ± 0.6 % ID.

What about the SUV blood ([1]; 60 min after tracer injection) of the same compound?
Its SUV blood is 0.75 ± 0.1.

What about the “% ID carcass” value ([1]; 2 min after tracer injection) of the same compound?
The value was 35.1 ± 4.1 % ID.

And the “% ID carcass” value ([1]; 30 min after tracer injection)?
The value was 46.9 ± 0.5 % ID.

And the “% ID carcass” value ([1]; 60 min after tracer injection)?
Its value is 43.2 ± 5.3 % ID.

What about the “% ID cerebellum” value ([1]; 2 min after tracer injection) of the same compound?
Its value is 0.1 ± 0.0 % ID.

What about the SUV cerebellum ([1]; 2 min after tracer injection) of the same compound?
The SUV cerebellum was 1.02 ± 0.1.

What about the “% ID cerebellum” value ([1]; 30 min after tracer injection) of the same compound?
Its value is 0.1 ± 0.0 % ID.

What about the SUV cerebellum ([1]; 30 min after tracer injection) of the same compound?
The SUV cerebellum was 0.53 ± 0.0.

And the “% ID cerebellum” value ([1]; 60 min after tracer injection)?
Its value is 0.1 ± 0.0 % ID.

And the SUV cerebellum ([1]; 60 min after tracer injection)?
Its SUV cerebellum is 0.59 ± 0.1.

What about the “% ID cerebrum” value ([1]; 2 min after tracer injection) of the same compound?
Its value is 0.5 ± 0.0 % ID.

What about the “% ID cerebrum” value ([1]; 30 min after tracer injection) of the same compound?
Its value is 0.3 ± 0.0 % ID.

What about the “% ID cerebrum” value ([1]; 60 min after tracer injection) of the same compound?
Its value is 0.3 ± 0.1 % ID.

What about the SUV cortex ([1]; 2 min after tracer injection) of the same compound?
The SUV cortex was 0.80 ± 0.2.

What about the SUV cortex ([1]; 30 min after tracer injection) of the same compound?
The SUV cortex was 0.58 ± 0.1.

What about the SUV cortex ([1]; 60 min after tracer injection) of the same compound?
The SUV cortex was 0.65 ± 0.1.

And the “% ID heart” value ([1]; 2 min after tracer injection)?
The value was 1.3 ± 0.2 % ID.

And the “% ID heart” value ([1]; 30 min after tracer injection)?
The value was 0.4 ± 0.0 % ID.

And the “% ID heart” value ([1]; 60 min after tracer injection)?
Its value is 0.4 ± 0.1 % ID.

And the SUV hippocampus ([1]; 2 min after tracer injection)?
The SUV hippocampus was 0.74 ± 0.0.

And the SUV hippocampus ([1]; 30 min after tracer injection)?
The SUV hippocampus was 0.43 ± 0.0.

And the SUV hippocampus ([1]; 60 min after tracer injection)?
Its SUV hippocampus is 0.52 ± 0.1.

And the “% ID intestines” value ([1]; 2 min after tracer injection)?
Its value is 14.0 ± 1.8 % ID.

And the “% ID intestines” value ([1]; 30 min after tracer injection)?
The value was 23.8 ± 1.1 % ID.

And the “% ID intestines” value ([1]; 60 min after tracer injection)?
Its value is 26.7 ± 9.1 % ID.

And the “% ID kidneys” value ([1]; 2 min after tracer injection)?
Its value is 4.5 ± 0.8 % ID.

What about the “% ID kidneys” value ([1]; 30 min after tracer injection) of the same compound?
The value was 1.9 ± 0.1 % ID.

And the “% ID kidneys” value ([1]; 60 min after tracer injection)?
Its value is 1.8 ± 0.2 % ID.

What about the “injected dose retained in the liver and the intestines” value ([1]; liver and intestines, 60 min after tracer injection) of the same compound?
The value was 43.8%.

What about the “% ID liver” value ([1]; 2 min after tracer injection) of the same compound?
Its value is 34.8 ± 2.1 % ID.

And the “% ID liver” value ([1]; 30 min after tracer injection)?
The value was 19.4 ± 0.5 % ID.

And the “% ID liver” value ([1]; 60 min after tracer injection)?
Its value is 17.1 ± 0.3 % ID.

What about the “% ID lungs” value ([1]; 2 min after tracer injection) of the same compound?
Its value is 2.1 ± 0.3 % ID.

What about the “% ID lungs” value ([1]; 30 min after tracer injection) of the same compound?
Its value is 1.0 ± 0.1 % ID.

And the “% ID lungs” value ([1]; 60 min after tracer injection)?
Its value is 1.1 ± 0.4 % ID.

And the “SUV rest of cerebrum” value ([1]; 2 min after tracer injection)?
Its value is 0.86 ± 0.0.

What about the “SUV rest of cerebrum” value ([1]; 30 min after tracer injection) of the same compound?
Its value is 0.46 ± 0.0.

What about the “SUV rest of cerebrum” value ([1]; 60 min after tracer injection) of the same compound?
Its value is 0.53 ± 0.1.

What about the “% ID spleen + pancreas” value ([1]; 2 min after tracer injection) of the same compound?
The value was 1.4 ± 0.4 % ID.

And the “% ID spleen + pancreas” value ([1]; 30 min after tracer injection)?
Its value is 0.6 ± 0.1 % ID.

What about the “% ID spleen + pancreas” value ([1]; 60 min after tracer injection) of the same compound?
The value was 0.6 ± 0.1 % ID.

And the “% ID stomach” value ([1]; 2 min after tracer injection)?
The value was 1.7 ± 0.3 % ID.

And the “% ID stomach” value ([1]; 30 min after tracer injection)?
Its value is 2.1 ± 1.0 % ID.

What about the “% ID stomach” value ([1]; 60 min after tracer injection) of the same compound?
Its value is 5.1 ± 3.4 % ID.

And the SUV striatum ([1]; 2 min after tracer injection)?
Its SUV striatum is 0.78 ± 0.0.

What about the SUV striatum ([1]; 30 min after tracer injection) of the same compound?
The SUV striatum was 0.45 ± 0.0.

And the SUV striatum ([1]; 60 min after tracer injection)?
Its SUV striatum is 0.50 ± 0.1.

And the “total initial brain uptake” value ([1]; total brain, 2 min after injection)?
Its value is 0.6%.

What about the total brain uptake ([1]; total brain, 60 min after tracer injection) of the same compound?
The total brain uptake was 0.4%.

What about the “% ID in urine and kidneys” value ([1]; urine and kidneys, 60 min after injection) of the same compound?
The value was 2.9 % ID.

And the “% ID urine” value ([1]; 2 min after tracer injection)?
The value was 0.1 ± 0.1 % ID.

What about the “% ID urine” value ([1]; 30 min after tracer injection) of the same compound?
The value was 0.9 ± 0.0 % ID.

What about the “% ID urine” value ([1]; 60 min after tracer injection) of the same compound?
Its value is 1.1 ± 0.5 % ID.

And the SUV whole cerebrum ([1]; 2 min after tracer injection)?
The SUV whole cerebrum was 0.83 ± 0.0.

And the SUV whole cerebrum ([1]; 30 min after tracer injection)?
The SUV whole cerebrum was 0.46 ± 0.0.

And the SUV whole cerebrum ([1]; 60 min after tracer injection)?
Its SUV whole cerebrum is 0.54 ± 0.1.

What about the “recovered radioactivity in the plasma in the form of intact tracer” value [2] of the same compound?
The value was 70±6%.
